The test system of one assay is GDF8. The experiment in a line: AlphaScreen SureFire p-SMAD3 (Ser423/425) assay, GDF8-stimulated cells. The format is cell-based. As to conditions: Mus musculus. The essentials:
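Lysate (5 μL) went into 384-well shallow plates with 5 μL of Reaction Buffer, Activation Buffer and AlphaScreen Acceptor bead mix. Plates were sealed, kept dark and shaken for 2 hours at room temperature. Donor beads in dilution buffer (2 μL) were added for another 1½ hours, and p-SMAD3 signal was read on a Synergy-4 or Enspire reader.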
(Alpha assays give light when donor and acceptor beads are brought close together.)

For another assay, the system named is TGF-β. The experiment in a line: AlphaScreen SureFire p-SMAD3 (Ser423/425) assay, TGF-β-stimulated cells. As to conditions: Mus musculus. The format is cell-based. The method in brief: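 The p-SMAD-3 (Ser423/425) SureFire assay measured phosphorylation of endogenous SMAD-3 in cell lysates. Cells were plated overnight in collagen-coated plates, exposed to three-fold serially diluted compounds for about 10 minutes, then stimulated with TGFβ. Lysates (5 μL) received acceptor bead mix for 2 hours, then donor beads for 1½ hours before AlphaScreen reading.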

Where [1] appears, read: MPC-11, p-SMAD3 (Ser423/425) AlphaScreen in cell lysate, MPC11, GDF8 stimulation, read-out: GDF8: inhibition of GDF8 signaling, GDF pSMAD (MPC11).
The mark [2] stands for this setting: p-SMAD3 (Ser423/425) AlphaScreen in cell lysate, MPC-11, TGF-β stimulation, read-out: TGF-β: inhibition of TGF-β signaling, TGF-β pSMAD (MPC-11).

Read-outs that look alike come from different tables or passages of the source. Where only a bound is given, the exact number is not on record here.

Regarding `Fc1ccccc1-c1nc2n(c1-c1cc3cnccc3s1)CCC2` [Compound 100, 2-(2-(2-fluorophenyl)-6,7-dihydro-5H-pyrrolo[1,2-a]imidazol-3-yl)thieno[3,2-c]pyridine], the IC50 in the assay on GDF8 (setting [1]) is 0.1 to 1 µM; in the assay with TGF-β (setting [2]), over 1 µM.
`Fc1ccc(-c2nc3n(c2-c2cc4cnccc4s2)CCC3)cc1` [Compound 101, 2-(2-(4-fluorophenyl)-6,7-dihydro-5H-pyrrolo[1,2-a]imidazol-3-yl)thieno[3,2-c]pyridine]: the IC50 in the assay with GDF8 (setting [1]) and with TGF-β (setting [2]) was 0.1 to 1 µM each time.
Turning to `Fc1ccc(Cl)cc1-c1nc2n(c1-c1cc3cnccc3s1)CCC2` [Compound 102, 2-(2-(5-chloro-2-fluorophenyl)-6,7-dihydro-5H-pyrrolo[1,2-a]imidazol-3-yl)thieno[3,2-c]pyridine], the figures for the IC50 in the assay with GDF8 (setting [1]) and in the assay with TGF-β (setting [2]) were under 0.05 µM and 0.05 to 0.1 µM, respectively.
For `Fc1cc(F)c(-c2nc3n(c2-c2ccc4ncsc4c2)CCN3)cc1F` [Compound 103, 6-(6-(2,4,5-trifluorophenyl)-2,3-dihydro-1H-imidazo[1,2-a]imidazol-5-yl)benzo[d]thiazole], the IC50 in the assay with GDF8 (setting [1]) and in the assay on TGF-β (setting [2]) was under 0.05 µM throughout.
Consider `CC(=O)N1CCn2c1nc(-c1cc(F)c(F)cc1F)c2-c1ccc2ncnn2c1` [Compound 104, 1-(5-([1,2,4]triazolo[1,5-a]pyridin-6-yl)-6-(2,4,5-trifluorophenyl)-2,3-dihydro-1H-imidazo[1,2-a]imidazol-1-yl)ethan-1-one], for which the IC50 in the assay with GDF8 (setting [1]) and in the assay with TGF-β (setting [2]) was over 1 µM each time.
As for `Fc1cc(F)c(-c2nc3n(c2-c2ccc4ncnn4c2)CCN3)cc1F` [Compound 105, 6-(6-(2,4,5-trifluorophenyl)-2,3-dihydro-1H-imidazo[1,2-a]imidazol-5-yl)-[1,2,4]triazolo[1,5-a]pyridine], the IC50 with GDF8 (setting [1]) and in the assay on TGF-β (setting [2]) was under 0.05 µM throughout.
As to `Fc1cc(F)c(-c2nc3n(c2-c2ccc4nccnc4c2)CCN3)cc1F` [Compound 106, 6-(6-(2,4,5-trifluorophenyl)-2,3-dihydro-1H-imidazo[1,2-a]imidazol-5-yl)quinoxaline], the IC50 in the assay with GDF8 (setting [1]) and in the assay with TGF-β (setting [2]) was under 0.05 µM in each case.
On to `Fc1cc(F)c(-c2nc3n(c2-c2ccc4ncccc4c2)CCN3)cc1F` [Compound 107, 6-(6-(2,4,5-trifluorophenyl)-2,3-dihydro-1H-imidazo[1,2-a]imidazol-5-yl)quinoline], for which the IC50 in the assay on GDF8 (setting [1]) and in the assay on TGF-β (setting [2]) was under 0.05 µM each time.
As to `Fc1cc(F)c(-c2nc3n(c2-c2ccc4nccn4c2)CCN3)cc1F` [Compound 108, 6-(6-(2,4,5-trifluorophenyl)-2,3-dihydro-1H-imidazo[1,2-a]imidazol-5-yl)imidazo[1,2-a]pyridine], the IC50 in the assay with GDF8 (setting [1]) and in the assay on TGF-β (setting [2]) was under 0.05 µM each time.
With `CC(=O)N1CCn2c1nc(-c1cc(F)cc(F)c1F)c2-c1ccc2ncnn2c1` [Compound 109, 1-(5-([1,2,4]triazolo[1,5-a]pyridin-6-yl)-6-(2,3,5-trifluorophenyl)-2,3-dihydro-1H-imidazo[1,2-a]imidazol-1-yl)ethan-1-one], the IC50 in the assay on GDF8 (setting [1]) and in the assay on TGF-β (setting [2]) was under 0.05 µM throughout.
Consider `Fc1cc(F)c(F)c(-c2nc3n(c2-c2ccc4ncccc4c2)CCN3)c1` [Compound 110, 6-(6-(2,3,5-trifluorophenyl)-2,3-dihydro-1H-imidazo[1,2-a]imidazol-5-yl)quinoline], for which the IC50 with GDF8 (setting [1]) and in the assay with TGF-β (setting [2]) was under 0.05 µM in each case.
`Fc1cc(F)c(F)c(-c2nc3n(c2-c2ccc4nccnc4c2)CCN3)c1` [Compound 111, 6-(6-(2,3,5-trifluorophenyl)-2,3-dihydro-1H-imidazo[1,2-a]imidazol-5-yl)quinoxaline]: the IC50 with GDF8 (setting [1]) and in the assay on TGF-β (setting [2]) was under 0.05 µM each time.
For the compound `Fc1cc(F)c(F)c(-c2nc3n(c2-c2cc4cnccc4s2)CCN3)c1` [Compound 112, 2-(6-(2,3,5-trifluorophenyl)-2,3-dihydro-1H-imidazo[1,2-a]imidazol-5-yl)thieno[3,2-c]pyridine], the IC50 in the assay on GDF8 (setting [1]) and in the assay with TGF-β (setting [2]) was under 0.05 µM in each case.
With `Nc1ncnc2ccc(-c3c(-c4cc(F)cc(F)c4F)nc4n3CCN4)cc12` [Compound 113, 6-(6-(2,3,5-trifluorophenyl)-2,3-dihydro-1H-imidazo[1,2-a]imidazol-5-yl)quinazolin-4-amine], the IC50 with GDF8 (setting [1]) and in the assay on TGF-β (setting [2]) was 0.05 to 0.1 µM in each case.
As to `COCCOc1cnc2ccc(-c3c(-c4cc(F)c(F)cc4F)nc4n3CCN4)cc2n1` [Compound 115, 2-(2-methoxyethoxy)-7-(6-(2,4,5-trifluorophenyl)-2,3-dihydro-1H-imidazo[1,2-a]imidazol-5-yl)quinoxaline], the IC50 in the assay with GDF8 (setting [1]) and in the assay on TGF-β (setting [2]) was 0.1 to 1 µM each time.
With `Fc1cc(F)c(-c2nc3n(c2-c2cc4cnccc4s2)CCN3)cc1F` [Compound 116, 2-(6-(2,4,5-trifluorophenyl)-2,3-dihydro-1H-imidazo[1,2-a]imidazol-5-yl)thieno[3,2-c]pyridine], the IC50 with GDF8 (setting [1]) and in the assay on TGF-β (setting [2]) was under 0.05 µM each time.
`COCCOc1cnc2ccc(-c3c(-c4cc(F)cc(F)c4F)nc4n3CCN4)cc2n1` [Compound 117, 2-(2-methoxyethoxy)-7-(2-(2,3,5-trifluorophenyl)-5,6-dihydro-7λ^2-imidazo[3,2-a]imidazol-3-yl)quinoxaline]: the IC50 with GDF8 (MPC-11, read-out: GDF8: inhibition of GDF8 signaling, GDF pSMAD (MPC11), p-SMAD3 (Ser423/425) AlphaScreen in cell lysate, GDF8 stimulation) was 0.1 to 1 µM; in the assay on TGF-β (MPC-11, read-out: TGF-β: inhibition of TGF-β signaling, TGF-β pSMAD (MPC-11), p-SMAD3 (Ser423/425) AlphaScreen in cell lysate, TGF-β stimulation), over 1 µM.
In the case of `O=C(O)C1Cn2c(nc(-c3cc(F)cc(F)c3F)c2-c2ccc3ncnn3c2)N1` (stereo not shown) [Compound 118, 5-([1,2,4]triazolo[1,5-a]pyridin-6-yl)-6-(2,3,5-trifluorophenyl)-2,3-dihydro-1H-imidazo[1,2-a]imidazole-2-carboxylic acid], the IC50 in the assay with GDF8 (setting [1]) and in the assay on TGF-β (setting [2]) was under 0.05 µM throughout.
For the compound `CC(=O)N1c2nc(-c3cc(F)cc(F)c3F)c(-c3ccc4ncnn4c3)n2CC1C(=O)O` (stereo not shown) [Compound 119, 5-([1,2,4]triazolo[1,5-a]pyridin-6-yl)-1-acetyl-6-(2,3,5-trifluorophenyl)-2,3-dihydro-1H-imidazo[1,2-a]imidazole-2-carboxylic acid], the IC50 in the assay on GDF8 (setting [1]) and with TGF-β (setting [2]) was under 0.05 µM each time.
Regarding `CN(C)CCOc1cnc2ccc(-c3c(-c4cc(F)c(F)cc4F)nc4n3CCN4)cc2n1` [Compound 120, N,N-dimethyl-2-((7-(6-(2,4,5-trifluorophenyl)-2,3-dihydro-1H-imidazo[1,2-a]imidazol-5-yl)quinoxalin-2-yl)oxy)ethan-1-amine], the IC50 in the assay on GDF8 (setting [1]) and with TGF-β (setting [2]) was under 0.05 µM throughout.
As to `OCC1Cn2c(nc(-c3cc(F)cc(F)c3F)c2-c2ccc3ncnn3c2)N1` (stereo not shown) [Compound 121, (5-([1,2,4]triazolo[1,5-a]pyridin-6-yl)-6-(2,3,5-trifluorophenyl)-2,3-dihydro-1H-imidazo[1,2-a]imidazol-2-yl)methanol], the IC50 in the assay with GDF8 (setting [1]) and in the assay on TGF-β (setting [2]) was under 0.05 µM each time.
On to `Fc1cc(F)c(-c2nc3n(c2-c2ccc4ncc(OCCN5CCOCC5)nc4c2)CCN3)cc1F` [Compound 122, 4-(2-((7-(6-(2,4,5-trifluorophenyl)-2,3-dihydro-1H-imidazo[1,2-a]imidazol-5-yl)quinoxalin-2-yl)oxy)ethyl)morpholine], for which the values for the IC50 with GDF8 (setting [1]) and with TGF-β (setting [2]) were 0.05 to 0.1 µM and 0.1 to 1 µM, respectively.
On to `OCC1Cn2c(nc(-c3cc(F)cc(F)c3F)c2-c2ccc3ncccc3c2)N1` (stereo not shown) [Compound 123, (5-(quinolin-6-yl)-6-(2,3,5-trifluorophenyl)-2,3-dihydro-1H-imidazo[1,2-a]imidazol-2-yl)methanol], for which the figures for the IC50 with GDF8 (setting [1]) and with TGF-β (setting [2]) were 0.05 to 0.1 µM and 0.1 to 1 µM, respectively.
In the same order, the values of `OCC1Cn2c(nc(-c3cc(F)cc(F)c3F)c2-c2ccc3nccnc3c2)N1` (stereo not shown) [Compound 124, (5-(quinoxalin-6-yl)-6-(2,3,5-trifluorophenyl)-2,3-dihydro-1H-imidazo[1,2-a]imidazol-2-yl)methanol] are 0.1 to 1 µM and 0.1 to 1 µM.
Consider `O=C(O)C1Cn2c(nc(-c3cc(F)cc(F)c3F)c2-c2ccc3nccnc3c2)N1` (stereo not shown) [Compound 125, 5-(quinoxalin-6-yl)-6-(2,3,5-trifluorophenyl)-2,3-dihydro-1H-imidazo[1,2-a]imidazole-2-carboxylic acid], for which the IC50 was 0.05 to 0.1 µM in the assay with GDF8 (setting [1]) and under 0.05 µM with TGF-β (setting [2]).
In the same order, the values of `Fc1ccc(-c2nc3occn3c2-c2ccc3[nH]ncc3c2)cc1` [Compound 126, 6-(4-fluorophenyl)-5-(1H-indazol-5-yl)imidazo[2,1-b]oxazole] are under 0.05 µM and 0.05 to 0.1 µM.
As for `Fc1ccc(-c2nc3occn3c2-c2ccc3ncsc3c2)cc1` [Compound 127, 5-(benzo[d]thiazol-6-yl)-6-(4-fluorophenyl)imidazo[2,1-b]oxazole], the IC50 in the assay on GDF8 (setting [1]) and in the assay with TGF-β (setting [2]) was under 0.05 µM in each case.
`Fc1ccc(-c2nc3occn3c2-c2ccc3cn[nH]c3c2)cc1` [Compound 128, 6-(4-fluorophenyl)-5-(1H-indazol-6-yl)imidazo[1,2-b]oxaozle]: the IC50 with GDF8 (setting [1]) and in the assay on TGF-β (setting [2]) was 0.1 to 1 µM throughout.
`Fc1ccc(-c2nc3occn3c2-c2ccc3nccn3c2)cc1` [Compound 129, 6-(4-fluorophenyl)-5-(imidazo[1,2-a]pyridin-6-yl)imidazo[2,1-b]oxazole]: the IC50 with GDF8 (setting [1]) was under 0.05 µM; in the assay on TGF-β (setting [2]), 0.05 to 0.1 µM.

(Values after patent publication US10696693B2, “Fused imidazole derivatives as TGF-beta inhibitors” (Rigel Pharmaceuticals, Inc., priority 2014, dated 2020).)
